ChEMBL document CHEMBL3991601, “The target landscape of clinical kinase drugs” (Science, 2017)
The source made the active and inactive calls.

How the values were obtained:
[1] = biological target: T1, Discoidin domain-containing receptor 2 (Homo sapiens, UniProt Q16832)
T1 sequence (Q16832 whole entry): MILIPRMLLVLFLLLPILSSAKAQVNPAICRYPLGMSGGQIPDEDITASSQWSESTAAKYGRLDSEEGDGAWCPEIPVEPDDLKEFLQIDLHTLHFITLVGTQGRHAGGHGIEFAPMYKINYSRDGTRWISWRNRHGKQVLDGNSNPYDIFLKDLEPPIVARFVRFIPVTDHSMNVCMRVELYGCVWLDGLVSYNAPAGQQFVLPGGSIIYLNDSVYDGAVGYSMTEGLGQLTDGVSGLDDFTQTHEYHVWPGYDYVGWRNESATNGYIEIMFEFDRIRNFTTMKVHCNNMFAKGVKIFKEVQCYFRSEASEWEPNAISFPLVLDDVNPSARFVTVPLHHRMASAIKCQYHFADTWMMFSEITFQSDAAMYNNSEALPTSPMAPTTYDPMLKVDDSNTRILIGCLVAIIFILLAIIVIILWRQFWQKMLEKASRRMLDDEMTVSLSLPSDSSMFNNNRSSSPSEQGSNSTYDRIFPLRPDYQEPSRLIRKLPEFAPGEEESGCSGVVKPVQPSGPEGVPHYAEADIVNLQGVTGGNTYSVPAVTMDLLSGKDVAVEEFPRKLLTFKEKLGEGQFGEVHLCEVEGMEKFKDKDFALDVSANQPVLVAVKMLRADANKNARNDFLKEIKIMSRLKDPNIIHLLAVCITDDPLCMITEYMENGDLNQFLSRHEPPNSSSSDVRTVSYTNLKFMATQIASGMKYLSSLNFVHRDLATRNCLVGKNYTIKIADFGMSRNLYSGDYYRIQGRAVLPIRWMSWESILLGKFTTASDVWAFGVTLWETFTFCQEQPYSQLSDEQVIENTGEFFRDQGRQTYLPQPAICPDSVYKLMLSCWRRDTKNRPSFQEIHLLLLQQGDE

[2] = biological target: T2, Mitogen-activated protein kinase kinase kinase 5 (Homo sapiens, UniProt Q99683)
T2 sequence (Q99683 whole entry): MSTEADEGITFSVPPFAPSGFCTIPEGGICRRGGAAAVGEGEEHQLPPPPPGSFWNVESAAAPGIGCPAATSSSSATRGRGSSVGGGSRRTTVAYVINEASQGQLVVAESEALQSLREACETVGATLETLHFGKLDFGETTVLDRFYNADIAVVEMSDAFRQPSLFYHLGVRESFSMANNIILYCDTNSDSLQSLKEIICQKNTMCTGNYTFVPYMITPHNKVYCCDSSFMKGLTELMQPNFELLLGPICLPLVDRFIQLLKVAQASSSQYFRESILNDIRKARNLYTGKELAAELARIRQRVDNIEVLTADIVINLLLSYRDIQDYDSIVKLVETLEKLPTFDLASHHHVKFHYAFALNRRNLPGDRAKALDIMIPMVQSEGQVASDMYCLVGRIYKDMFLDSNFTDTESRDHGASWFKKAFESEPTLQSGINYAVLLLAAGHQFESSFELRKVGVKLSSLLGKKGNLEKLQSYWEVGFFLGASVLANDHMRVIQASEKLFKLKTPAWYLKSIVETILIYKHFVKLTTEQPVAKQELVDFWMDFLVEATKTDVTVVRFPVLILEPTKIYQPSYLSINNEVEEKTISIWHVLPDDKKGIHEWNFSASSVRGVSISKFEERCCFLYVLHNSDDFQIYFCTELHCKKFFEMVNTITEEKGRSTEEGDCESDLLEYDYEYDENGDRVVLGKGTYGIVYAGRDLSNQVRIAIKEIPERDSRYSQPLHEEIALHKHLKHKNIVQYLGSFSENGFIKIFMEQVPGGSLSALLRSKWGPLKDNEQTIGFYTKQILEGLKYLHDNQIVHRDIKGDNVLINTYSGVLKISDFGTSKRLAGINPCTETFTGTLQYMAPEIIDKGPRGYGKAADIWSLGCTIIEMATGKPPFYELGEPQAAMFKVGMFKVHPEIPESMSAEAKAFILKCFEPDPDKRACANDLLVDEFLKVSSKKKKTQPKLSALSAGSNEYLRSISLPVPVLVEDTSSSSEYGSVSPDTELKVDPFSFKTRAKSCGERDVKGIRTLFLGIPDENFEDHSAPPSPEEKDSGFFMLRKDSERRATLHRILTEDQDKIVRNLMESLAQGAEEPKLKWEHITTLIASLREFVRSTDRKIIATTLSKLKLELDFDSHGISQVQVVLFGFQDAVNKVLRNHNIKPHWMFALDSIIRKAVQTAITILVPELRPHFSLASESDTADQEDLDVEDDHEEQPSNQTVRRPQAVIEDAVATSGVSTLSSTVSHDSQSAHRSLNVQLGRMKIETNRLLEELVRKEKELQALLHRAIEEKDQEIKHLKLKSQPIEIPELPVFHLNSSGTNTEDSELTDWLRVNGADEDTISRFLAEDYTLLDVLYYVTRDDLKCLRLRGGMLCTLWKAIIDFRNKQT

ADP/ATP translocase 3 = biological target: T3, ADP/ATP translocase 3 (Homo sapiens, UniProt P12236)
T3 sequence (P12236 whole entry): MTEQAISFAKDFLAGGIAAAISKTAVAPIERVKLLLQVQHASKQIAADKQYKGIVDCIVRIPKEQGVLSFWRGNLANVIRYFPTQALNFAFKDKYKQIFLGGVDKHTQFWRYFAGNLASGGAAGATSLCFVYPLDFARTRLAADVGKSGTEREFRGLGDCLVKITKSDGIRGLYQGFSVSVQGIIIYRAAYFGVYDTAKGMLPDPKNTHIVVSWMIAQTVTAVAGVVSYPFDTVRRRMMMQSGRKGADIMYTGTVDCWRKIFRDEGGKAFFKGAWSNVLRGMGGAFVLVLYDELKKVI
Note: in the data inactive means no Kd found up to 30 µM.

| Structure (SMILES) | Kd [1] | Kd [2] | Kd (ADP/ATP translocase 3) |
| --- | --- | --- | --- |
| Cc1ccc(C(=O)Nc2ccc(Oc3cc4cnn(C)c4cc3-c3cn[nH]c3)c(F)c2)c(=O)n1-c1ccc(F)cc1 [MERESTINIB] | 0.908 µM (active) | > 30 µM (inactive) | > 30 µM (inactive) |
| O=C(NOC[C@H](O)CO)c1ccc(F)c(F)c1Nc1ccc(I)cc1F [MIRDAMETINIB] | > 30 µM (inactive) | > 30 µM (inactive) | > 30 µM (inactive) |
| N#CCNC(=O)c1ccc(-c2ccnc(Nc3ccc(N4CCOCC4)cc3)n2)cc1 [MOMELOTINIB] | > 30 µM (inactive) | > 30 µM (inactive) | > 30 µM (inactive) |
| COc1cccc2cc(-c3nc([C@H]4CC[C@H](C(=O)O)CC4)n4ncnc(N)c34)[nH]c12 [OSI-027] | > 30 µM (inactive) | > 30 µM (inactive) | > 30 µM (inactive) |
| O=C(Nc1ccc(OC(F)(F)F)cc1)c1sccc1NCc1ccnc2ccccc12 [OSI-930] | > 30 µM (inactive) | > 30 µM (inactive) | > 30 µM (inactive) |
| C=CC(=O)Nc1cc(Nc2nccc(-c3cn(C)c4ccccc34)n2)c(OC)cc1N(C)CCN(C)C [OSIMERTINIB] | > 30 µM (inactive) | > 30 µM (inactive) | > 30 µM (inactive) |
| FC(F)(F)c1ccc(CNc2ccc(Cc3c[nH]c4ncc(Cl)cc34)cn2)cn1 [PEXIDARTINIB] | > 30 µM (inactive) | > 30 µM (inactive) | > 30 µM (inactive) |
| CN(c1ncccc1CNc1nc(Nc2ccc3c(c2)CC(=O)N3)ncc1C(F)(F)F)S(C)(=O)=O [PF-00562271] | > 30 µM (inactive) | > 30 µM (inactive) | > 30 µM (inactive) |
| CC(C)CC(=O)Nc1[nH]nc2c1CN(C(=O)C1CCN(C)CC1)C2(C)C [PHA-793887] | > 30 µM (inactive) | > 30 µM (inactive) | > 30 µM (inactive) |
| O=C(NC[C@H](O)CO)c1ccncc1Nc1ccc(I)cc1F [PIMASERTIB] | > 30 µM (inactive) | > 30 µM (inactive) | > 30 µM (inactive) |
| COc1cc(F)c(F)c(Nc2ccc(I)cc2F)c1NS(=O)(=O)C1(C[C@H](O)CO)CC1 [REFAMETINIB] | > 30 µM (inactive) | > 30 µM (inactive) | > 30 µM (inactive) |
| COCCN1CCN(Cc2ccc(-c3n[nH]c4c3C(=O)c3c(NC(=O)NN5CCOCC5)cccc3-4)cc2)CC1 [RGB-286638] | > 30 µM (inactive) | > 30 µM (inactive) | > 30 µM (inactive) |
| C=CC(=O)Nc1cccc(Nc2nc(Nc3ccc(N4CCN(C(C)=O)CC4)cc3OC)ncc2C(F)(F)F)c1 [ROCILETINIB] | > 30 µM (inactive) | > 30 µM (inactive) | > 30 µM (inactive) |
| O=C(O)c1ccc2c(c1)nc(Nc1cccc(Cl)c1)c1ccncc12 [SILMITASERTIB] | > 30 µM (inactive) | > 30 µM (inactive) | > 30 µM (inactive) |
| C=CCN(/C=C1/C(=O)O[C@H](COC)[C@@]2(C)C1=C(O)C(=O)C1=C2[C@H](OC(C)=O)C[C@]2(C)C(=O)CC[C@@H]12)CC=C [SONOLISIB] | > 30 µM (inactive) | > 30 µM (inactive) | > 30 µM (inactive) |
| CN1CCN(c2nc(C3=C(c4c[nH]c5ccccc45)C(=O)NC3=O)c3ccccc3n2)CC1 [SOTRASTAURIN] | > 30 µM (inactive) | > 30 µM (inactive) | > 30 µM (inactive) |
| CC(C)(O)CC(=O)NCCn1ccc2ncnc(Nc3ccc(Oc4cccc(C(F)(F)F)c4)c(Cl)c3)c21 [TAK-285] | > 30 µM (inactive) | > 30 µM (inactive) | > 30 µM (inactive) |
| Cc1cc(C(=O)Nc2cc(Oc3ccc4nc(NC(=O)C5CC5)cn4n3)ccc2C)n(C)n1 [TAK-593] | 19.3 µM (active) | > 30 µM (inactive) | > 30 µM (inactive) |
| Cn1c(=O)c(F)c(Nc2ccc(I)cc2F)c2c(=O)n(C[C@@H](O)CO)cnc21 [TAK-733] | > 30 µM (inactive) | > 30 µM (inactive) | > 30 µM (inactive) |
| O[C@H]1CC[C@H](Nc2ncc3nc(Nc4c(F)cc(F)cc4F)n([C@H]4CCOC4)c3n2)CC1 [TANZISERTIB] | > 30 µM (inactive) | > 30 µM (inactive) | > 30 µM (inactive) |
| CNC(=O)c1cc(COc2nnc(Nc3ccc(Cl)cc3)c3ccoc23)ccn1 [TELATINIB] | > 30 µM (inactive) | > 30 µM (inactive) | > 30 µM (inactive) |
| Cc1cc(-c2cc(OC(=O)c3ccccc3)ccc2Cl)cc2nnc(Nc3ccc(OCCN4CCCC4)cc3)nc12 [TG100-801] | > 30 µM (inactive) | > 30 µM (inactive) | > 30 µM (inactive) |
| C[C@@H]1COC(Nc2ccc3ncnc(Nc4ccc(OCc5nccs5)c(Cl)c4)c3c2)=N1 [VARLITINIB] | > 30 µM (inactive) | > 30 µM (inactive) | > 30 µM (inactive) |
| CNC(=O)c1cccc(-c2ccc3c(N4CCOC[C@@H]4C)nc(N4CCOC[C@@H]4C)nc3n2)c1 [VISTUSERTIB] | > 30 µM (inactive) | > 30 µM (inactive) | > 30 µM (inactive) |
| NC(=O)c1ccc(N(C(N)=O)c2c(F)cccc2F)nc1-c1ccc(F)cc1F [VX-702] | > 30 µM (inactive) | > 30 µM (inactive) | > 30 µM (inactive) |
| COc1cc2ncnc(Nc3ccc(O)cc3)c2cc1OC [WHI-P131] | > 30 µM (inactive) | > 30 µM (inactive) | > 30 µM (inactive) |
